Source: patent US20210261539A1, “COMPOUND HAVING BET INHIBITORY ACTIVITY AND PREPARATION METHOD AND USE THEREFOR” (Shanghai Haihe Pharmaceutical Co., Ltd., priority 2018, published 2021)

Target: T1, BRD4 BD1 (Homo sapiens, UniProt O60885)
T1 construct: Protein BRD4 BD1 used in the assay was purchased from Active Motif (cat. 31380); purchased Active Motif 31380
Assay: HTRF in vitro enzyme activity assay, inhibition of BRD4 BD1 binding to acetylated H4 peptide
Settings: IC50 values of the compounds against BRD4 BD1 binding; class symbols A/B/C
Method: Effect Examples: In Vitro Enzyme Activity Assay
Half inhibitory activity (IC50) of the compounds of the invention against the bromodomain protein BRD4 BD1 was determined in the present Examples.
The compounds of the invention were tested for inhibitory activity against BRD4 BD1 with Homogeneous Time-Resolved Fluorescence (HTRF).
2. Reagents, Consumable Materials and Instruments:
Protein BRD4 BD1 used in the assay was purchased from Active Motif (cat. 31380); streptavidin XL-665 (#610SAXLA) and EPIgeneous Binding Domain Kit A (#62BDAPEG) were both purchased from Cisbio Bioassays; [Lys(5,8,12,16)Ac] H4(1-21)-biotin (#64989), [Lys(5,8,12,16)Ac]H4(1-25) were available from Anaspec; OTX015 and ABBV-075 were purchased from Selleckchem Co. The 384-well ProxiPlate (#6008280) was purchased from Perkinelmer Co. The Laboratory microplate reader (Envision 2104) was available from PerkinElmer Co. The water used in the assay was Millipore-Q pure water.
3. Formulation of the Compound
10 mM DMSO stock solution of the test compound was diluted to 1 mM in DMSO, and then diluted 10-fold in Binding Domain dilution buffer (purchased from Cisbio Bioassays) for use (DMSO concentration in the final system was 0.1%), including 5 concentrations in 1:5 gradient.
4. Assay Protocol: 1 Batch, 2 Repeats
1) 5 μL of test compound was transferred to 45 μL Binding Domain dilution buffer.
2) 2 μL of 1× compound (4 μL Binding Domain dilution buffer: positive control; 6 μL enzyme buffer (purchased from Cisbio Bioassays): negative control) was transferred to a reaction plate.
3) 4 μL of 5×BRD 4(1) was added to the reaction plate (30 nM in the final system).
4) 4 μL of 5×[Lys(5,8,12,16)Ac] H4(1-21)-biotin was added to the reaction plate, and the plate was covered with a film and incubated at 37° C. for 30 min.
5) A detection mixture of SA-XL665 (2×) and anti-H3K9me0-Eu(K) (2×) was prepared in detection buffer (purchased from Cisbio Bioassays).
6) 10 μL of detection mixture (2×) was added to each well, incubated at RT for 3 h. The mp value was read by microplate reader Envision with the following parameters: […]

| IC50 [µM] | Structure (SMILES) |
| --- | --- |
| 0.01 to 0.1 | CC1C(=O)N(C)c2ccc(N3C(=O)CCC3c3ccc(F)cc3)nc2N1C1CC1 (single isomer, unassigned) [Example A22-P1, 4-cyclopropyl-6-(2-(4-fluorophenyl)-5-oxopyrrolidin-1-yl)-1,3-dimethyl-3,4-dihydropyrido[2,3-b]pyrazin-2(1H)-one] |
| ≤ 0.01 | CC1C(=O)N(C)c2ccc(N3C(=O)c4ccccc4C3c3ccc(F)cc3)nc2N1C1CC1 (single isomer, unassigned) [Example A23P4, 4-cyclopropyl-6-(1-(4-fluorophenyl)-3-oxoisoindolin-2-yl)-1,3-dimethyl-3,4-dihydropyrido[2,3-b]pyrazin-2(1H)-one] |
| ≤ 0.01 | Cc1ccc(-n2c3ccccc3c(=O)n2-c2ccc3c(n2)N(C2CC2)C(C)C(=O)N3C)cn1 (single isomer, unassigned) [Example A50-P1, 6-(1-(6-methyl-pyridin-3-yl)-3-oxo-1,3-dihydro-2H-indazol-2-yl)-4-cyclopropyl-1-methyl-3-methyl-3,4-dihydropyridine [2,3-b]pyrazin-2(1H)-one] |
| ≤ 0.01 | C[C@@H]1C(=O)N(C)c2ccc(N3C(=O)c4ccccc4C3c3cccnc3)nc2N1CCF (single isomer, unassigned) [Example A55-P2, 4-(2-fluoroethyl)-1,3-dimethyl-6-(1-oxo-3-(pyridin-3-yl)isoindolin-2-yl)-3,4-dihydropyrido [2,3-b]pyrazin-2(1H)-one] |
| ≤ 0.01 | CC1C(=O)N(C)c2ccc(N3C(=O)c4c(cccc4[S+](C)[O-])C3c3cccnc3)nc2N1C1CC1 (single isomer, unassigned) [Example A60-P1] |
| ≤ 0.01 | CC1C(=O)N(C)c2ccc(N3C(=O)c4ccccc4C3c3ccc(F)nc3)nc2N1C1CC1 (single isomer, unassigned) [Example A67-P3, 4-cyclopropyl-1,3-dimethyl-6-(1-oxo-3-(6-fluoropyridin-3-yl)isoindolin-2-yl)-3,4-dihydropyrido[3,2-b]pyrazin-2-(1H)-one] |
| ≤ 0.01 | CC1C(=O)N(C)c2ccc(N3C(=O)c4ccccc4C3c3ccccn3)nc2N1C1CC1 (single isomer, unassigned) [Example A69-P3, 4-cyclopropyl-1,3-dimethyl-6-(1-oxo-3-(pyridin-2-yl)isoindolin-2-yl)-3,4-dihydropyrido[2,3-b]pyrazin-2(1H)-one] |
| ≤ 0.01 | CC1C(=O)N(C)c2c(F)cc(N3C(=O)c4ccccc4C3c3cccnc3)cc2N1C1CC1 (single isomer, unassigned) [Example A71-P4, 4-cyclopropyl-8-fluoro-1,3-dimethyl-6-(1-oxo-3-(pyridin-3-yl)isoindolin-2-yl)-3,4-dihydroquinoxalin-2(1H)-one] |
| ≤ 0.01 | CC1C(=O)N(C)c2ccc(N3C(=O)c4sccc4C3c3cccnc3)nc2N1C1CC1 (single isomer, unassigned) [Example A72-P4, 5-(4-cyclopropyl-1,3-dimethyl-2-oxo-1,2,3,4-tetrahydropyrido[2,3-b]pyrazin-6-yl)-4-(pyridin-3-yl)-4,5-dihydro-6H-thieno[2,3-c]pyrrol-6-one] |
| ≤ 0.01 | C[C@@H]1C(=O)N(C)c2ccc(N3C(=O)c4cccnc4C3(O)c3ccccc3)nc2N1C (single isomer, unassigned) [Example A76-P1] |

The remaining lines, values behind:

| Structure (SMILES) | IC50 [µM] |
| --- | --- |
| C[C@H]1Nc2nc(N3C(=O)CCC3c3ccccc3)ccc2N(C)C1=O (single isomer, unassigned) [Example A20-P1] | 0.01 to 0.1 |
| CC1Oc2nc(N3C(=O)CCC3c3ccc(F)cc3)ccc2N(C)C1=O (single isomer, unassigned) [Example A21-P1, 6-(2-(4-fluorophenyl)-5-oxopyrrolidin-1-yl)-1,3-dimethyl-1H-pyrido[2,3-B][1,4]oxazin-2(3H)-one] | ≤ 0.01 |
| Cc1ccc(-n2c3ccccc3c(=O)n2-c2ccc3c(n2)N(C2CC2)C(C)C(=O)N3C)cn1 (single isomer, unassigned) [Example A50-P3, 6-(1-(6-methyl-pyridin-3-yl)-3-oxo-1,3-dihydro-2H-indazol-2-yl)-4-cyclopropyl-1-methyl-3-methyl-3,4-dihydropyridine [2,3-b]pyrazin-2(1H)-one] | ≤ 0.01 |
| Cc1ccc(-n2c3ccccc3c(=O)n2-c2ccc3c(n2)N(C2CC2)C(C)C(=O)N3C)cn1 (single isomer, unassigned) [Example A50-P4, 6-(1-(6-methyl-pyridin-3-yl)-3-oxo-1,3-dihydro-2H-indazol-2-yl)-4-cyclopropyl-1-methyl-3-methyl-3,4-dihydropyridine [2,3-b]pyrazin-2(1H)-one] | ≤ 0.01 |
| CC1C(=O)N(C)c2ccc(N3C(=O)c4c(cccc4[S+](C)[O-])C3c3cccnc3)nc2N1C1CC1 (single isomer, unassigned) [Example A60-P2] | ≤ 0.01 |
| CC1C(=O)N(C)c2ccc(N3C(=O)c4c(cccc4[S+](C)[O-])C3c3cccnc3)nc2N1C1CC1 (single isomer, unassigned) [Example A60-P3] | ≤ 0.01 |
| C[C@@H]1C(=O)N(C)c2ccc(N3C(=O)c4c(cccc4S(C)(=O)=O)C3c3cccnc3)nc2N1C (single isomer, unassigned) [Example A62-P1] | ≤ 0.01 |
| C[C@@H]1C(=O)N(C)c2ccc(N3C(=O)c4c(cccc4[S+](C)[O-])C3c3cccnc3)nc2N1C (single isomer, unassigned) [Example A63-P3] | ≤ 0.01 |
| C[C@@H]1C(=O)N(C)c2ccc(N3C(=O)c4c(cccc4[S+](C)[O-])C3c3cccnc3)nc2N1C (single isomer, unassigned) [Example A63-P4] | ≤ 0.01 |
| CC1C(=O)N(C)c2ccc(N3C(=O)c4c(cccc4S(C)(=O)=O)C3c3cccnc3)nc2N1C1CC1 (single isomer, unassigned) [Example A64-P3, 4-cyclopropyl-1,3-dimethyl-6-(4-(methanesulfonyl)-3-oxo-1-(pyridin-3-yl)isoindolin-2-yl)-3,4-dihydropyrido[2,3-b]pyrazin-2(1H)-one] | ≤ 0.01 |
| CSc1cccc2c1C(=O)N(c1ccc3c(n1)N(C1CC1)C(C)C(=O)N3C)C2c1cccnc1 (single isomer, unassigned) [Example A65-P3, 4-cyclopropyl-1,3-dimethyl-6-(4-(methylthio)-3-oxo-1-(pyridin-3-yl)isoindolin-2-yl)-3,4-dihydropyrido[2,3-b]pyrazin-2(1H)-one] | ≤ 0.01 |
| CCSc1cccc2c1C(=O)N(c1ccc3c(n1)N(C1CC1)C(C)C(=O)N3C)C2c1cccnc1 (single isomer, unassigned) [Example A66-P3] | ≤ 0.01 |
| CC1C(=O)N(C)c2ccc(N3C(=O)c4ccccc4C3c3ccc(F)cn3)nc2N1C1CC1 (single isomer, unassigned) [Example A68-P3, 4-cyclopropyl-6-(1-(5-fluoropyridin-2-yl)-3-oxoisoindolin-2-yl)-1,3-dimethyl-3,4-dihydropyrido[2,3-b]pyrazin-2(1H)-one] | ≤ 0.01 |
| CC1C(=O)N(C)c2cnc(N3C(=O)c4ccccc4C3c3cccnc3)cc2N1C1CC1 (single isomer, unassigned) [Example A70-P3, 1-cyclopropyl-2,4-dimethyl-7-(1-oxo-3-(pyridin-3-yl)isoindolin-2-yl)-1,4-dihydropyrido[3,4-b]pyrazin-3(2H)-one] | ≤ 0.01 |
| CC1C(=O)N(C)c2ccc(N3C(=O)c4cc(F)ccc4C3c3cccnc3)nc2N1C1CC1 (single isomer, unassigned) [Example A74-P4, 4-cyclopropyl-6-(5-fluoro-3-oxo-1-(pyridin-3-yl)isoindolin-2-yl)-1,3-dimethyl-3,4-dihydropyrido[2,3-b]pyrazin-2(1H)-one] | ≤ 0.01 |
| CC1C(=O)N(C)c2ccc(N3C(=O)c4cccc(F)c4C3c3cccnc3)nc2N1C1CC1 (single isomer, unassigned) [Example A75-P3, 4-cyclopropyl-6-(7-fluoro-3-oxo-1-(pyridin-3-yl)isoindolin-2-yl)-1,3-dimethyl-3,4-dihydropyrido[2,3-b]pyrazin-2(1H)-one] | ≤ 0.01 |
| CC1C(=O)N(C)c2ccc(N3C(=O)c4cc(C(=O)N5CCN(C)CC5)ccc4C3c3ccc(F)cc3)nc2N1C1CC1 (single isomer, unassigned) [Example A78-P4, 4-cyclopropyl-6-(1-(4-fluorophenyl)-5-(4-methylpiperazine-1-carbonyl)-3-oxoisoindolin-2-yl)-1,3-dimethyl-3,4-dihydropyrido[2,3-b]pyrazin-2(1H)-one] | ≤ 0.01 |
| CC1C(=O)N(C)c2ccc(N3C(=O)c4c(cccc4C(C)(C)O)C3c3ccc(F)cc3)nc2N1C1CC1 (single isomer, unassigned) [Example A79-P4, 4-cyclopropyl-6-(1-(4-fluorophenyl)-4-(2-hydroxyprop-2-yl)-3-oxoisoindolin-2-yl)-1,3-dimethyl-3,4-dihydropyrido[2,3-b]pyrazin-2(1H)-one] | ≤ 0.01 |
